# Reference: patent US20250367185A1, “TRANSLESION SYNTHESIS POLYMERASE INHIBITORS AND USES THEREOF” (THE UNIVERSITY OF VERMONT AND STATE AGRICULTURAL COLLEGE, priority 2022, published 2025)
# System: HPRT (hypoxanthine phosphoribosyltransferase) gene in A549-ACE2+ cells infected with SARS-COV-2
# Assay: HPRT mutagenesis in SARS-COV-2 infected cells
# Assay type: cell-based
compound,measurement,value
"CC(C)CC(=O)c1c(Nc2ccc(C(=O)O)cc2Cl)[nH]c2c(Cl)ccc([N+](=O)[O-])c2c1=O [Compound 1, 3-chloro-4-((8-chloro-3-(3-methylbutanoyl)-5-nitro-4-oxo-1,4-dihydroquinolin-2-yl)amino)benzoic acid]",SARS-COV-2-dependent HPRT mutagenesis,suppress
